pIC50: −log10 of the molar value.
How the values were obtained:
α4β2 nAChR [1] = molecular target: T1, α4β2 nAChR (Rattus norvegicus, UniProt P09483+P12390); test: [3H]epibatidine binding to α4β2 nAChR in cell membranes; settings: binding selectivity for α4β2 over α3β4
α4β2 nAChR [2] = molecular target: T1, α4β2 nAChR; test: nAChR functional assay, membrane potential change; format: cell-based
α3β4 nAChR = α3β4 nAChR (Rattus norvegicus, UniProt P04757+P12392); test: nAChR functional assay, membrane potential change; format: cell-based
α3β4α5 nAChR = test: binding affinity against α3β4α5 nAChR

T1 sequence (P09483 31-630): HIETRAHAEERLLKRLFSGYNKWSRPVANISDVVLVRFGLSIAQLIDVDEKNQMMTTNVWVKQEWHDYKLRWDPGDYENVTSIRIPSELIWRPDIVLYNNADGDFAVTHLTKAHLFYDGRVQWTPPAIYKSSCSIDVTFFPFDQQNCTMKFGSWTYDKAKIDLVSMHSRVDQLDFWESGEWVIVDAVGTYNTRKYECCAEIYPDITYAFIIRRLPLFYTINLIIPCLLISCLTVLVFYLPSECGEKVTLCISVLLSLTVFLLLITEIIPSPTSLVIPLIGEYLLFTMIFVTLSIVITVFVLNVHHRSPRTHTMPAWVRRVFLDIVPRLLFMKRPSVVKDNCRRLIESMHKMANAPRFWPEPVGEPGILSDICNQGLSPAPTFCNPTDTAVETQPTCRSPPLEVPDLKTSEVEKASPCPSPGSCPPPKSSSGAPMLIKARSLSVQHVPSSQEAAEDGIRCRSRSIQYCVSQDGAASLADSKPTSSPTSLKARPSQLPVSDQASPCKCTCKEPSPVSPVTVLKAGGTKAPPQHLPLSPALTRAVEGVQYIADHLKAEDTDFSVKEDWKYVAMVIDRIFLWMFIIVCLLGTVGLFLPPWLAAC
T1 sequence (P12390 25-500): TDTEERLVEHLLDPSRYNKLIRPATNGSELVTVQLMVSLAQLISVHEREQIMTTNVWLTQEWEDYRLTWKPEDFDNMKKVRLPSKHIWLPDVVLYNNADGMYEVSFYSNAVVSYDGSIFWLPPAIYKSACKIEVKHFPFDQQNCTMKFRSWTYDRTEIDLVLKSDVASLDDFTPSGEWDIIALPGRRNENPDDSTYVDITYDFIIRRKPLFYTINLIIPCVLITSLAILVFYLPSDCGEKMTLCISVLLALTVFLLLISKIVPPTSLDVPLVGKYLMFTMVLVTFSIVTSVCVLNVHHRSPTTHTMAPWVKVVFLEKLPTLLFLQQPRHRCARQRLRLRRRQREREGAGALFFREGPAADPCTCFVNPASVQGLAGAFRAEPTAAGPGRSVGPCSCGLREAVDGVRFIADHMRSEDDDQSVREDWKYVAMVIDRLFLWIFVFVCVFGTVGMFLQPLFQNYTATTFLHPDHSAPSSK
Sequence of α3β4 nAChR (P04757 26-499): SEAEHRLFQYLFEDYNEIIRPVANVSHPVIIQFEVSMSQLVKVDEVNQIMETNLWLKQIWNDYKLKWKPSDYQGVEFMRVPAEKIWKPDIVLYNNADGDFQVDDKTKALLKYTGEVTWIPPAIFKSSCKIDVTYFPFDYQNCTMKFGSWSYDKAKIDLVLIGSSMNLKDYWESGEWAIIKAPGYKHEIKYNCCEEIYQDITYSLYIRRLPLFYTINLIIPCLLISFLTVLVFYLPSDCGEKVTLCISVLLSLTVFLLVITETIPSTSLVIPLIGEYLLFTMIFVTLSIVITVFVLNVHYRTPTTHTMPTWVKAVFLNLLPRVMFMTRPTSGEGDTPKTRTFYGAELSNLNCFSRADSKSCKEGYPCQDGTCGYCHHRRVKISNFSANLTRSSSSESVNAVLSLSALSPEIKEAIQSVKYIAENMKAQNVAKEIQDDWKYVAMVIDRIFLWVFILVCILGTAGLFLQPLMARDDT
Sequence of α3β4 nAChR (P12392 21-495): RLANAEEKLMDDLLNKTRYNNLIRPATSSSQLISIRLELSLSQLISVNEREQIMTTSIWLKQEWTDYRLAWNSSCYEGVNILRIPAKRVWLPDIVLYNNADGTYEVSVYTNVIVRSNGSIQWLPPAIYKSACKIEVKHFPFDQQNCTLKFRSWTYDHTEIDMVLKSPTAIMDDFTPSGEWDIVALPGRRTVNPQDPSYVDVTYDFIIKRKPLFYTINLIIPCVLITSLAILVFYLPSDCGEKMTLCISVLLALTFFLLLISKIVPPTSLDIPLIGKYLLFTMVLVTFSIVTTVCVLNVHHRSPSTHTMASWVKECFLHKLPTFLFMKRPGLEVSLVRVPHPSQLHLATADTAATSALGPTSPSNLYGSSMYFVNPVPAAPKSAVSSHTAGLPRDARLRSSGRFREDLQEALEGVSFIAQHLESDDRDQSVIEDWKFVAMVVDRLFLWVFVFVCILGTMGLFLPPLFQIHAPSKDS

SMILES: CC(C)(C)C1CCC(CN2C(=N)N(CCCC[C@H]3CNC(=N)N3CCc3cccnc3)C[C@H]2Cc2ccccc2)CC1 (stereo partly drawn) [Compound 301, (R)-4-Benzyl-3-((4-tert-butylcyclohexyl)methyl)-1-(4-((S)-2-imino-3-(2-(pyridin-3-yl)ethyl)imidazolidin-4-yl)butyl)imidazolidin-2-imine]
- selectivity (fold) (α3β4 Ki/α4β2 Ki) (α4β2 nAChR [1]): ~500 fold
- agonist activity at α4β2 nAChR (α4β2 nAChR [2]; membrane potential change, HEK cells, up to 10 µM): no agonist activity
- mode of inhibition of nicotine's activity (α4β2 nAChR [2]; nicotine dose response curves with various concentrations of 301): noncompetitive
- inverse agonist activity (α4β2 nAChR [2]; α4β2-containing cells, very high concentrations): potential inverse agonist activity
- pIC50 (α3β4 nAChR): < 5.00
- agonist activity at α3β4 nAChR (α3β4 nAChR; membrane potential change, HEK cells): no agonist activity
- binding affinity Kd/Ki against α3β4α5 nAChR (α3β4α5 nAChR): 9.062 µM

SMILES: CN1CCC[C@H]1c1cccnc1 [nicotine, reference compound]
- Emax (α4β2 nAChR [2]; HEK293, read-out: nicotine maximum stimulation): 100%
